Values joined by “and” are separate entries in the source; they are usually repeats but may differ in a detail not shown here. Identical values can stand only once.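 Dose response: 5 concentrations. Exposure: 48 h. Format: 96-well plates. Endpoint: linear interpolation; highest concentration if not reached. At the GI50, growth is halved. TGI marks complete inhibition of growth.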 Numbered stars: 1 amine (or outer) side, 2 acyl side, 3 side chain; on linkers, the order of the positions; unused ones are H or OH. Bridge positions count the residues as written; N and C are the ends. Square brackets hold non-standard residues; d marks the D form. Peptide text beside a SMILES is read from it. I, II: the chains in the order shown. Actinocin(1to9) = Cc1c2oc3c(C)ccc(C(=O)[*:2])c3nc-2c(C(=O)[*:1])c(N)c1=O; NMeY = CN[CH](Cc1ccc(O)cc1)C(=O)O; Sar = CNCC(=O)O
Legend:
Experiment in all cases: inhibition of tumour cell growth, NCI panel, 48 h
HT29 colon = system: HT29 colon
786-0 renal = system: 786-0 renal
SN12C renal = system: SN12C renal
TK-10 renal = system: TK-10 renal
NCI/ADR-RES ovarian = system: NCI/ADR-RES ovarian
U251 CNS = system: U251 CNS
SF-295 CNS = system: SF-295 CNS
SK-OV-3 ovarian = system: SK-OV-3 ovarian
HOP-62 NSCLC = system: HOP-62 NSCLC
MDA-MB-435 = system: MDA-MB-435

SMILES: COc1ccc(CC2C(=O)OC(C)C(NC(=O)c3c4nc5c(C(=O)NC6C(=O)NC(C(C)C)C(=O)N7CCCC7C(=O)N(C)CC(=O)N(C)C(Cc7ccc(OC)cc7)C(=O)OC6C)ccc(C)c5oc-4c(C)c(=O)c3N)C(=O)NC(C(C)C)C(=O)N3CCCC3C(=O)N(C)CC(=O)N2C)cc1 (stereo unspecified) (I: TVP[Sar][NMeY](Me) / II: TVP[Sar][NMeY](Me); ester I:1-I:C, II:1-II:C; linker I:N-II:N via Actinocin(1to9); configuration not given here)
- GI50 (HT29 colon): < 0.01 µM and 0.00275 µM
- GI50 (786-0 renal): < 0.0333 µM and 0.00694 µM
- TGI (786-0 renal): > 1 µM
- TGI (SN12C renal): > 1 µM
- TGI (TK-10 renal): 2.69 µM and 0.969 µM
- GI50 (NCI/ADR-RES ovarian): 0.0901 µM and > 0.863 µM
- TGI (NCI/ADR-RES ovarian): 11.5 µM and > 1 µM
- GI50 (U251 CNS): 0.00189 µM
- TGI (U251 CNS): > 1 µM
- TGI (SF-295 CNS): 0.28 µM
- GI50 (SK-OV-3 ovarian): < 0.01 µM and 0.0582 µM

SMILES: CC1SC(c2ccc(Cl)cc2Cl)N(NC(=O)C(O)c2ccccc2)C1=O (stereo unspecified)
- GI50 (HT29 colon): 41.9 µM
- TGI (HT29 colon): > 100 µM
- GI50 (HOP-62 NSCLC): > 100 µM
- TGI (HOP-62 NSCLC): > 100 µM
- GI50 (786-0 renal): > 100 µM
- TGI (786-0 renal): > 100 µM
- GI50 (MDA-MB-435): 74.7 µM
- TGI (MDA-MB-435): > 100 µM
- GI50 (SN12C renal): 85.4 µM
- TGI (SN12C renal): > 100 µM
- GI50 (TK-10 renal): 61.2 µM
- TGI (TK-10 renal): > 100 µM
- GI50 (U251 CNS): 61.4 µM
- TGI (U251 CNS): > 100 µM
- GI50 (SF-295 CNS): 23.7 µM
- TGI (SF-295 CNS): > 100 µM
- GI50 (SK-OV-3 ovarian): > 100 µM
- TGI (SK-OV-3 ovarian): > 100 µM

SMILES: CC(=O)[CH-]C(=O)c1ccccc1.CC(=O)[CH-]C(=O)c1ccccc1.[O-]c1ccc2c(c1)OCO2.[O-]c1ccc2c(c1)OCO2.[Ti+4]
- GI50 (HT29 colon): 26.8 µM
- TGI (HT29 colon): > 100 µM
- GI50 (HOP-62 NSCLC): 20.4 µM
- TGI (HOP-62 NSCLC): 93.8 µM
- GI50 (786-0 renal): 21.1 µM
- TGI (786-0 renal): 80.7 µM
- GI50 (SN12C renal): 43.9 µM
- TGI (SN12C renal): > 100 µM
- GI50 (U251 CNS): 22.2 µM
- TGI (U251 CNS): > 100 µM
- GI50 (SF-295 CNS): 30.6 µM
- TGI (SF-295 CNS): > 100 µM
- GI50 (SK-OV-3 ovarian): 30.1 µM
- TGI (SK-OV-3 ovarian): > 100 µM

SMILES: O=C([O-])CC(=O)[O-].[NH-][C@@H]1CCCC[C@H]1[NH-].[Pt+4]
- GI50 (HT29 colon): 6.13 µM
- TGI (HT29 colon): > 100 µM
- GI50 (HOP-62 NSCLC): > 27.1 µM
- TGI (HOP-62 NSCLC): > 100 µM
- GI50 (786-0 renal): 13.2 µM
- TGI (786-0 renal): > 100 µM
- GI50 (MDA-MB-435): 15.5 µM
- TGI (MDA-MB-435): > 100 µM
- GI50 (SN12C renal): 15 µM
- TGI (SN12C renal): > 100 µM
- GI50 (TK-10 renal): > 100 µM
- TGI (TK-10 renal): > 100 µM
- GI50 (U251 CNS): 17.4 µM
- TGI (U251 CNS): > 83.3 µM
- GI50 (SF-295 CNS): 39.4 µM
- TGI (SF-295 CNS): > 100 µM
- GI50 (SK-OV-3 ovarian): > 100 µM
- TGI (SK-OV-3 ovarian): > 100 µM

SMILES: O=c1c2cc3ccccc3n2c(=O)c2cc3ccccc3n12
- TGI (HT29 colon): > 100 µM
- TGI (786-0 renal): > 100 µM
- TGI (SN12C renal): > 100 µM
- TGI (TK-10 renal): > 100 µM
- TGI (U251 CNS): > 100 µM
- TGI (SF-295 CNS): > 100 µM

SMILES: COC(=O)CC[C@]12C[C@]13CC[C@]1(C)C4C(C)C[C@]5(CC(C)C(=O)O5)OC4CC1(C)C3CCC2C(C)(C)O (stereo partly specified)
- TGI (HT29 colon): > 100 µM
- TGI (HOP-62 NSCLC): > 100 µM
- TGI (786-0 renal): > 100 µM
- TGI (SN12C renal): > 100 µM
- TGI (TK-10 renal): > 100 µM
- TGI (U251 CNS): > 100 µM
- TGI (SF-295 CNS): > 100 µM
- TGI (SK-OV-3 ovarian): > 100 µM

SMILES: N#Cc1cc(S(=O)(=O)Nc2nc3ccccc3o2)c(SCc2ccccc2)cc1Cl
- GI50 (HT29 colon): 29.1 µM
- TGI (HT29 colon): 83.6 µM
- GI50 (HOP-62 NSCLC): 21.4 µM
- TGI (HOP-62 NSCLC): 43.6 µM
- GI50 (786-0 renal): 21.8 µM
- TGI (786-0 renal): 45.2 µM
- GI50 (MDA-MB-435): 27.2 µM
- TGI (MDA-MB-435): 60.2 µM
- GI50 (SN12C renal): 24.7 µM
- TGI (SN12C renal): 57.9 µM
- GI50 (TK-10 renal): 52 µM
- TGI (TK-10 renal): > 100 µM
- GI50 (NCI/ADR-RES ovarian): 29.6 µM
- TGI (NCI/ADR-RES ovarian): 75.8 µM
- GI50 (U251 CNS): 18.9 µM
- TGI (U251 CNS): 34 µM
- GI50 (SF-295 CNS): 27.2 µM
- TGI (SF-295 CNS): 65.8 µM

SMILES: C=C1C(OC(C)=O)CC(OC(C)=O)C2(C)C(OC(C)=O)C(OC(C)=O)C3=C(C)C(OC(=O)/C=C/c4ccccc4)CC(C(OC(C)=O)C12)C3(C)C (stereo unspecified)
- TGI (HT29 colon): > 100 µM
- TGI (HOP-62 NSCLC): > 100 µM
- TGI (786-0 renal): > 100 µM
- TGI (SN12C renal): > 100 µM
- TGI (TK-10 renal): > 100 µM
- TGI (U251 CNS): > 100 µM
- TGI (SF-295 CNS): > 100 µM
- TGI (SK-OV-3 ovarian): > 100 µM

From PubChem BioAssay (NCI)
